From patent publication US6355799B1, “Substituted benzene compounds, process for their preparation, and herbicidal and defoliant compositions containing them” (ISK Americas Incorporated, priority 1997, dated 2002)

Key:
Type in all cases: in vivo
[1] = test system: redroot pigweed (Amaranthus retroflexus, AMARE); assay: Pre-emerge test, greenhouse herbicide activity screening; conditions: rated 14 days after application, 0 = no damage, 100 = complete death
How it was run: (§1)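 Sandy loam pots; pre-emerge: sown 1 d pre-spray, surface-watered after, then bottom-watered. Post-emerge: sown 8–21 d before, 2–3 leaf stage, + 0.25% v/v NIS, bottom-watered. Acetone, 187 l/ha track spray, 15–1000 g ai/ha. 0–100 injury score, day 14.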

[2] = test system: barnyardgrass (Echinochloa crus-galli, ECHCG); assay: Post-emerge test, greenhouse herbicide activity screening; conditions: post-emerge, 14 days after application, rating scale 0-100
How it was run: as §1

[3] = test system: sicklepod (Cassia obtusifolia, CASOB); assay: as above; conditions: post-emerge, 14 days after application, rating scale 0-100
How it was run: as §1

[4] = test system: redroot pigweed (Amaranthus retroflexus, AMARE); assay: as above; conditions: post-emerge, 14 days after application, rating scale 0-100
How it was run: as §1

[5] = test system: johnsongrass (Sorghum halepense, SORHA); assay: as above; conditions: post-emerge, 14 days after application, rating scale 0-100
How it was run: as §1

[6] = test system: green foxtail (Setaria viridis, SETVI); assay: as above; conditions: post-emerge, 14 days after application, rating scale 0-100
How it was run: as §1

[7] = test system: lambsquarters (Chenopodium album, CHEAL); assay: as above; conditions: post-emerge, 14 days after application, rating scale 0-100
How it was run: as §1

[8] = test system: common ragweed (Ambrosia artemisizfolia L., AMBEL); assay: as above; conditions: post-emerge, 14 days after application, rating scale 0-100
How it was run: as §1

[9] = test system: velvetleaf (Abutilon theophrasti, ABUTH); assay: as above; conditions: post-emerge, 14 days after application, rating scale 0-100
How it was run: as §1

[10] = test system: ivyleaf morningglory (Ipomoea hederacea, IPOHE); assay: as above; conditions: post-emerge, 14 days after application, rating scale 0-100
How it was run: as §1

[11] = test system: large crabgrass (Digitaria sanguinalis, DIGSA); assay: as above; conditions: post-emerge, 14 days after application, rating scale 0-100
How it was run: as §1

[12] = test system: barnyardgrass (Echinochloa crus-galli, ECHCG); assay: Pre-emerge test, greenhouse herbicide activity screening; conditions: rated 14 days after application, 0 = no damage, 100 = complete death
How it was run: (§2)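 Plants grown in 10 cm pots of sandy loam mix received acetone-dissolved compounds through a moving flat-fan nozzle. Doses ranged from 15 to 1000 g ai/ha. Pre-emerge pots were seeded one day earlier, post-emerge pots 8–21 days earlier. Fourteen days on, each pot was graded 0–100 for damage.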

[13] = test system: sicklepod (Cassia obtusifolia, CASOB); assay: as above; conditions: rated 14 days after application, 0 = no damage, 100 = complete death
How it was run: as §2

[14] = test system: johnsongrass (Sorghum halepense, SORHA); assay: as above; conditions: rated 14 days after application, 0 = no damage, 100 = complete death
How it was run: as §2

[15] = test system: green foxtail (Setaria viridis, SETVI); assay: as above; conditions: rated 14 days after application, 0 = no damage, 100 = complete death
How it was run: as §2

[16] = test system: lambsquarters (Chenopodium album, CHEAL); assay: as above; conditions: rated 14 days after application, 0 = no damage, 100 = complete death
How it was run: as §2

[17] = test system: common ragweed (Ambrosia artemisizfolia L., AMBEL); assay: as above; conditions: rated 14 days after application, 0 = no damage, 100 = complete death
How it was run: as §2

[18] = test system: velvetleaf (Abutilon theophrasti, ABUTH); assay: as above; conditions: rated 14 days after application, 0 = no damage, 100 = complete death
How it was run: as §2

[19] = test system: ivyleaf morningglory (Ipomoea hederacea, IPOHE); assay: as above; conditions: rated 14 days after application, 0 = no damage, 100 = complete death
How it was run: as §2

[20] = test system: large crabgrass (Digitaria sanguinalis, DIGSA); assay: as above; conditions: rated 14 days after application, 0 = no damage, 100 = complete death
How it was run: as §2

[21] = test system: upland rice (Oryza sp., var. Tebonnet, RICE); assay: Post-emerge test, crop safety; conditions: post-emerge, 14 days after application, rating scale 0-100
How it was run: (§3)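 Each test used a mechanized track sprayer delivering 187 l/ha of acetone solution at 15–1000 g ai/ha. Post-emerge foliage at 2–3 leaves was treated with added 0.25% v/v non-ionic surfactant and bottom-watered only. Injury was assessed on day 14, where 100 means total kill.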

[22] = test system: field corn (Zea mays L., var. Dekalb 535, CORN); assay: Post-emerge test, crop safety; conditions: post-emerge, 14 days after application, rating scale 0-100
How it was run: as §3

[23] = test system: upland rice (Oryza sp., var. Tebonnet, RICE); assay: Pre-emerge test, crop safety; conditions: rated 14 days after application, 0 = no damage, 100 = complete death
How it was run: (§4)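 Compounds in acetone were track-sprayed at 15-1000 g ai/ha (187 l/ha) on sandy loam pots: pre-emerge one day after seeding, post-emerge at 2-3 leaf stage with 0.25% v/v non-ionic surfactant. Phytotoxicity was rated 14 days later on a 0 (no damage) to 100 (complete death) scale.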

[24] = test system: field corn (Zea mays L., var. Dekalb 535, CORN); assay: Pre-emerge test, crop safety; conditions: rated 14 days after application, 0 = no damage, 100 = complete death
How it was run: as §4

## COc1c(Cl)cc(F)c(-n2c(=O)cc(C(F)(F)F)n(C)c2=O)c1NC(=O)c1c(F)cccc1F [2-47]
[1]; 63 g ai/ha
  Pre-emerge Herbicidal Activity, phytotoxicity rating (0-100), AMARE: 100
[1]; 250 g ai/ha
  Pre-emerge Herbicidal Activity, phytotoxicity rating (0-100), AMARE: 100
[2]; 63 g ai/ha
  phytotoxicity rating ECHCG: 0
[2]; 250 g ai/ha
  phytotoxicity rating ECHCG: 10
[3]; 63 g ai/ha
  phytotoxicity rating CASOB: 70
[3]; 250 g ai/ha
  phytotoxicity rating CASOB: 100
[4]; 63 g ai/ha
  phytotoxicity rating AMARE: 90
[4]; 250 g ai/ha
  phytotoxicity rating AMARE: 100
[5]; 63 g ai/ha
  phytotoxicity rating SORHA: 0
[5]; 250 g ai/ha
  phytotoxicity rating SORHA: 0
[6]; 63 g ai/ha
  phytotoxicity rating SETVI: 20
[6]; 250 g ai/ha
  phytotoxicity rating SETVI: 30
[7]; 63 g ai/ha
  phytotoxicity rating CHEAL: 80
[7]; 250 g ai/ha
  phytotoxicity rating CHEAL: 100
[8]; 63 g ai/ha
  phytotoxicity rating AMBEL: 50
[8]; 250 g ai/ha
  phytotoxicity rating AMBEL: 90
[9]; 63 g ai/ha
  phytotoxicity rating ABUTH: 100
[9]; 250 g ai/ha
  phytotoxicity rating ABUTH: 100
[10]; 63 g ai/ha
  phytotoxicity rating IPOHE: 70
[10]; 250 g ai/ha
  phytotoxicity rating IPOHE: 100
[11]; 63 g ai/ha
  phytotoxicity rating DIGSA: 0
[11]; 250 g ai/ha
  phytotoxicity rating DIGSA: 0
[12]; 63 g ai/ha
  Pre-emerge Herbicidal Activity, phytotoxicity rating (0-100), ECHCG: 0
[12]; 250 g ai/ha
  Pre-emerge Herbicidal Activity, phytotoxicity rating (0-100), ECHCG: 99
[13]; 63 g ai/ha
  Pre-emerge Herbicidal Activity, phytotoxicity rating (0-100), CASOB: 90
[13]; 250 g ai/ha
  Pre-emerge Herbicidal Activity, phytotoxicity rating (0-100), CASOB: 100
[14]; 63 g ai/ha
  Pre-emerge Herbicidal Activity, phytotoxicity rating (0-100), SORHA: 60
[14]; 250 g ai/ha
  Pre-emerge Herbicidal Activity, phytotoxicity rating (0-100), SORHA: 90
[15]; 63 g ai/ha
  Pre-emerge Herbicidal Activity, phytotoxicity rating (0-100), SETVI: 100
[15]; 250 g ai/ha
  Pre-emerge Herbicidal Activity, phytotoxicity rating (0-100), SETVI: 100
[16]; 63 g ai/ha
  Pre-emerge Herbicidal Activity, phytotoxicity rating (0-100), CHEAL: 100
[16]; 250 g ai/ha
  Pre-emerge Herbicidal Activity, phytotoxicity rating (0-100), CHEAL: 100
[17]; 63 g ai/ha
  Pre-emerge Herbicidal Activity, phytotoxicity rating (0-100), AMBEL: 50
[17]; 250 g ai/ha
  Pre-emerge Herbicidal Activity, phytotoxicity rating (0-100), AMBEL: 100
[18]; 63 g ai/ha
  Pre-emerge Herbicidal Activity, phytotoxicity rating (0-100), ABUTH: 100
[18]; 250 g ai/ha
  Pre-emerge Herbicidal Activity, phytotoxicity rating (0-100), ABUTH: 100
[19]; 63 g ai/ha
  Pre-emerge Herbicidal Activity, phytotoxicity rating (0-100), IPOHE: 100
[19]; 250 g ai/ha
  Pre-emerge Herbicidal Activity, phytotoxicity rating (0-100), IPOHE: 100
[20]; 63 g ai/ha
  Pre-emerge Herbicidal Activity, phytotoxicity rating (0-100), DIGSA: 100
[20]; 250 g ai/ha
  Pre-emerge Herbicidal Activity, phytotoxicity rating (0-100), DIGSA: 100
[21]; 63 g ai/ha
  phytotoxicity rating RICE: 20
[21]; 250 g ai/ha
  phytotoxicity rating RICE: 45
[22]; 63 g ai/ha
  phytotoxicity rating CORN: 10
[22]; 250 g ai/ha
  phytotoxicity rating CORN: 15
[23]; 63 g ai/ha
  Pre-emerge phytotoxicity rating (0-100), crop damage, RICE: 70
[23]; 250 g ai/ha
  Pre-emerge phytotoxicity rating (0-100), crop damage, RICE: 95
[24]; 63 g ai/ha
  Pre-emerge phytotoxicity rating (0-100), crop damage, CORN: 40
[24]; 250 g ai/ha
  Pre-emerge phytotoxicity rating (0-100), crop damage, CORN: 99
